Measured values as given in the kinase profiling compilation of Christmann-Franck et al. (2016).

Experiments:
[1] = target: TEC (human) (UniProt P42680)
[2] = target: CAMK1D (human) (UniProt Q8IU85)
[3] = target: BRAF (human) (UniProt P15056)
[4] = target: MARK2 (human) (UniProt Q7KZI7)
[5] = target: WEE1 (human) (UniProt P30291)
[6] = target: PKN1 (human) (UniProt Q16512)
[7] = target: FES (human) (UniProt P07332)
[8] = target: PRKDC (human) (UniProt P78527)
[9] = target: PAK4 (human) (UniProt O96013)
Chain of PAK4 (human) (O96013 whole entry, looked up): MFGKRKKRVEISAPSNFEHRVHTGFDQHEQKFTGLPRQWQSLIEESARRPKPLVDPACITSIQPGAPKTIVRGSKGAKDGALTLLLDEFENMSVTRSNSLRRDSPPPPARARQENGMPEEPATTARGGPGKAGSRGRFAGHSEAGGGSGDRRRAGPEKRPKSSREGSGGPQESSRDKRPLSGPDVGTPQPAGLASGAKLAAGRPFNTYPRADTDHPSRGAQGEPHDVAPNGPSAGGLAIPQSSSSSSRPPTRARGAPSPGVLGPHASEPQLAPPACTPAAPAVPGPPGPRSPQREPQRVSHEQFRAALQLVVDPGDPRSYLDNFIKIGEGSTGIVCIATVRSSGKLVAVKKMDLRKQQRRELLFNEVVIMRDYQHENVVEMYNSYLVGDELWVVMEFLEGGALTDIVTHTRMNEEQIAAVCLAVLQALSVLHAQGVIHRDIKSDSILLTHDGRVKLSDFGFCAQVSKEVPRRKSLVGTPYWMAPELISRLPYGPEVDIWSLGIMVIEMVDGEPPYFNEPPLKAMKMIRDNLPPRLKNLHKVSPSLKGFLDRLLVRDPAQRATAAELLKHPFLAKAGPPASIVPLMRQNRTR

[10] = target: PTK2 (human) (UniProt Q05397)
[11] = target: LRRK2 (human) (UniProt Q5S007)
[12] = target: ULK3 (human) (UniProt Q6PHR2)
[13] = target: LIMK1 (human) (UniProt P53667)
Chain of LIMK1 (human) (P53667 whole entry, looked up): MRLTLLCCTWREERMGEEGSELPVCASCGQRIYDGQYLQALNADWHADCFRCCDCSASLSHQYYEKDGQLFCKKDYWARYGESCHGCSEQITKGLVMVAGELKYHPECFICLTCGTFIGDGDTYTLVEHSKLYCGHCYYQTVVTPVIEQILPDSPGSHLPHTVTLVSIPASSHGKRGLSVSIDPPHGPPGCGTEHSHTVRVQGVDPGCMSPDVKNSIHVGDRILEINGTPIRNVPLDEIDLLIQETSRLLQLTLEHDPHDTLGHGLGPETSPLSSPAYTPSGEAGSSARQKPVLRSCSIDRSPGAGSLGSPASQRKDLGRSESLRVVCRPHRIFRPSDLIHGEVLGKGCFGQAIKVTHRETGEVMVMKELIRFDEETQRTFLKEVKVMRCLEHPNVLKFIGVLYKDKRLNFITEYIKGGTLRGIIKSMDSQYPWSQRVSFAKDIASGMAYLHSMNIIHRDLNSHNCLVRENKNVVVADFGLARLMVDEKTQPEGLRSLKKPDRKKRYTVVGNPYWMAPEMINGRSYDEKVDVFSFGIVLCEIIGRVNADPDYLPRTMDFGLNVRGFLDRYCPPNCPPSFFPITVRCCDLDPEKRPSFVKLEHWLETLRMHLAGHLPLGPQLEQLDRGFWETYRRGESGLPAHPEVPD

[14] = target: CAMK2A (human) (UniProt Q9UQM7)
[15] = target: GAK (human) (UniProt O14976)
[16] = target: MAP3K4 (human) (UniProt Q9Y6R4)
[17] = target: TAOK3 (human) (UniProt Q9H2K8)
[18] = target: TGFBR2 (human) (UniProt P37173)
[19] = target: RIPK2 (human) (UniProt O43353)
Chain of RIPK2 (human) (O43353 whole entry, looked up): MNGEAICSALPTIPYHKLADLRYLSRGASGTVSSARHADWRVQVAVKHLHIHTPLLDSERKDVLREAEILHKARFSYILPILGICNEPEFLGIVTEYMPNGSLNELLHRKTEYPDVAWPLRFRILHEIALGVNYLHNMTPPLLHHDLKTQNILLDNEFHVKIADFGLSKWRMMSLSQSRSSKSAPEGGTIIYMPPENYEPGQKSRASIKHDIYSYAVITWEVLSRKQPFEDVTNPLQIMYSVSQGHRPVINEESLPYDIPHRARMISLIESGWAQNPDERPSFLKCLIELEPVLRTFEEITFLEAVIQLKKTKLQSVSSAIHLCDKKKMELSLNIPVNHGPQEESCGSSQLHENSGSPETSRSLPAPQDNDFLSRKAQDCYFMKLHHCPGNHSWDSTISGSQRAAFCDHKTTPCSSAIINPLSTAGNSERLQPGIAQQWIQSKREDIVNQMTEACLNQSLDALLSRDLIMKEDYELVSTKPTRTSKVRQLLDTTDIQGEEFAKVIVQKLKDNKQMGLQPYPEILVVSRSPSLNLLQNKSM

[20] = target: MAPK1 (human) (UniProt P28482)
[21] = target: MAPK3 (human) (UniProt P27361)
[22] = target: TYK2 JH1 JH2 (human) (UniProt P29597)
[23] = target: JAK1 JH1 JH2 (human) (UniProt P23458)
Chain of JAK1 JH1 JH2 (human) (P23458 whole entry, looked up): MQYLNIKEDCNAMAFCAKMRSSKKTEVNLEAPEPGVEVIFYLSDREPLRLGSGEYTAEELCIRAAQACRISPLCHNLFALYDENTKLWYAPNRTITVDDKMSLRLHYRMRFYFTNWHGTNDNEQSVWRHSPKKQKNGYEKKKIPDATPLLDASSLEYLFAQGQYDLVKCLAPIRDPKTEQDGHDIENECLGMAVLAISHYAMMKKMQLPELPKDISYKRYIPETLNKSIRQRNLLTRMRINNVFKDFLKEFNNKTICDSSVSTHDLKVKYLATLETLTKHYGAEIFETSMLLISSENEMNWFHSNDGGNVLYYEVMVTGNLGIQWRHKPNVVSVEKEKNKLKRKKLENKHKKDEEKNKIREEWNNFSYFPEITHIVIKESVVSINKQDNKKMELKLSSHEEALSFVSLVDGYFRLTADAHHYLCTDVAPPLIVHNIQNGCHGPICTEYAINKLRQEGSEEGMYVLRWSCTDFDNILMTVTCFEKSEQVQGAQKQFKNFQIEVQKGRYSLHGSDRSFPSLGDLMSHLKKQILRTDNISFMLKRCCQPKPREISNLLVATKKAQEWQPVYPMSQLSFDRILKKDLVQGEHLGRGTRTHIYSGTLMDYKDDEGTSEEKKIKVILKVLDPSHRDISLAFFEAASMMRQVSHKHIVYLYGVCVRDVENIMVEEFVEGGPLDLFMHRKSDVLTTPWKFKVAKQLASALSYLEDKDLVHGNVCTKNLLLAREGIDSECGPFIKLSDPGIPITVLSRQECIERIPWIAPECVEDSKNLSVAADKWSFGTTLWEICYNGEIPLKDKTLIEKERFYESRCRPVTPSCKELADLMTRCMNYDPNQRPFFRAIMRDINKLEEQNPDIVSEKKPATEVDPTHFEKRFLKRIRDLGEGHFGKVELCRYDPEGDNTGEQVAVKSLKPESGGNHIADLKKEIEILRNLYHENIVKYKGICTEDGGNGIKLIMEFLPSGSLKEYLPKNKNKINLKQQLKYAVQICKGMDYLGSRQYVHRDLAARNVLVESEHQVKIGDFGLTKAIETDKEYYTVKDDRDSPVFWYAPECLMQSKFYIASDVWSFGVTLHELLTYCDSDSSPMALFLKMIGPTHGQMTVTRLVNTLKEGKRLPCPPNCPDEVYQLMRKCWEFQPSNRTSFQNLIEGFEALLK

[24] = target: RPS6KA1 KD1 KD2 (human) (UniProt Q15418)
[25] = target: SIK3 (human) (UniProt Q9Y2K2)
[26] = target: TNK2 (human) (UniProt Q07912)
[27] = target: MAP4K5 (human) (UniProt Q9Y4K4)
[28] = target: EIF2AK4 KD1 KD2 (human) (UniProt Q9P2K8)
[29] = target: STRADA (human) (UniProt Q7RTN6)
[30] = target: ITK (human) (UniProt Q08881)
[31] = target: YES1 (human) (UniProt P07947)
[32] = target: MAP3K11 (human) (UniProt Q16584)
[33] = target: BMP2K (human) (UniProt Q9NSY1)
[34] = target: CDK14 (human) (UniProt O94921)
[35] = target: SYK (human) (UniProt P43405)
[36] = target: NEK9 (human) (UniProt Q8TD19)
Chain of NEK9 (human) (Q8TD19 whole entry, looked up): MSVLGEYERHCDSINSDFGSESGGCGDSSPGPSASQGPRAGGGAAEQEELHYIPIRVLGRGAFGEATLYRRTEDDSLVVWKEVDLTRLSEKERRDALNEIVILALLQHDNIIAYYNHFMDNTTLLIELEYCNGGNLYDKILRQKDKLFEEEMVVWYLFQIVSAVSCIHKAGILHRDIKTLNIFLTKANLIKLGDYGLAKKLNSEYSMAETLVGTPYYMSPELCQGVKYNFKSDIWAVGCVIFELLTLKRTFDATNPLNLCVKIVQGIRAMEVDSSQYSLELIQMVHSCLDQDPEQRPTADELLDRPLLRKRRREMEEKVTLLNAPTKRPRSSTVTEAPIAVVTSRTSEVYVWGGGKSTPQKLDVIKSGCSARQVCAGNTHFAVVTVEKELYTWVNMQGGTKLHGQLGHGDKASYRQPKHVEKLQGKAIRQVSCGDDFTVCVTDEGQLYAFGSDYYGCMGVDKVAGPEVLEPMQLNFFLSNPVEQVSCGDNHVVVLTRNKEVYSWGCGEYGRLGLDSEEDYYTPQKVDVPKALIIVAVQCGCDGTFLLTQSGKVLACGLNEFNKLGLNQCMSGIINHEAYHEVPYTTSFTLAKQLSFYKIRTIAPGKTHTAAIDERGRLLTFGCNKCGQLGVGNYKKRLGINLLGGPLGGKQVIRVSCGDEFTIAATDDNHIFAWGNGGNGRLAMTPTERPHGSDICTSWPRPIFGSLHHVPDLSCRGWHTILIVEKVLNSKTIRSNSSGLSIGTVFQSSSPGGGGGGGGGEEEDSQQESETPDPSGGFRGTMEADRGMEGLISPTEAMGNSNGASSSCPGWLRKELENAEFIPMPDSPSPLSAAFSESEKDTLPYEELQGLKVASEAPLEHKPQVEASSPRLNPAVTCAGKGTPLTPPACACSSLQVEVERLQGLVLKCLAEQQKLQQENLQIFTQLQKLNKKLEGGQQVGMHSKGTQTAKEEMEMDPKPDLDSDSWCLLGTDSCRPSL

[37] = target: ATM (human) (UniProt Q13315)
[38] = target: MAP3K5 (human) (UniProt Q99683)
[39] = target: FGR (human) (UniProt P09769)
[40] = target: CAMK2B (human) (UniProt Q13554)
[41] = target: BTK (human) (UniProt Q06187)
[42] = target: STK4 (human) (UniProt Q13043)
[43] = target: SRC (human) (UniProt P12931)
Chain of SRC (human) (P12931 whole entry, looked up): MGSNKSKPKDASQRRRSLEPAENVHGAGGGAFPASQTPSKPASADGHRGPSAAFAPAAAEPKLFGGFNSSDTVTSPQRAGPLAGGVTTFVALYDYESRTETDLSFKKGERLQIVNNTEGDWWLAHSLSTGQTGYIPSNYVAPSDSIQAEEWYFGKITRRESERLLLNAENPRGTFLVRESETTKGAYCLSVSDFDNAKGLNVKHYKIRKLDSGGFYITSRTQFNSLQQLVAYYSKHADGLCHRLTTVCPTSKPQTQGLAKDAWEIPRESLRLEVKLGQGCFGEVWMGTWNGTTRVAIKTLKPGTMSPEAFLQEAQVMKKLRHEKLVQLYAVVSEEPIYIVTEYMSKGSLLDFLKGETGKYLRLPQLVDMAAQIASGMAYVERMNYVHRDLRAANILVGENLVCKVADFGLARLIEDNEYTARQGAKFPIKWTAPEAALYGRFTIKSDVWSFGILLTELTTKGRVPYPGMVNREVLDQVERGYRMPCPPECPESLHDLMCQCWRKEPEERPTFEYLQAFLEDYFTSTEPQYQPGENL

[44] = target: PRKACB (human) (UniProt P22694)

Chain of TEC (human) (P42680 whole entry, looked up): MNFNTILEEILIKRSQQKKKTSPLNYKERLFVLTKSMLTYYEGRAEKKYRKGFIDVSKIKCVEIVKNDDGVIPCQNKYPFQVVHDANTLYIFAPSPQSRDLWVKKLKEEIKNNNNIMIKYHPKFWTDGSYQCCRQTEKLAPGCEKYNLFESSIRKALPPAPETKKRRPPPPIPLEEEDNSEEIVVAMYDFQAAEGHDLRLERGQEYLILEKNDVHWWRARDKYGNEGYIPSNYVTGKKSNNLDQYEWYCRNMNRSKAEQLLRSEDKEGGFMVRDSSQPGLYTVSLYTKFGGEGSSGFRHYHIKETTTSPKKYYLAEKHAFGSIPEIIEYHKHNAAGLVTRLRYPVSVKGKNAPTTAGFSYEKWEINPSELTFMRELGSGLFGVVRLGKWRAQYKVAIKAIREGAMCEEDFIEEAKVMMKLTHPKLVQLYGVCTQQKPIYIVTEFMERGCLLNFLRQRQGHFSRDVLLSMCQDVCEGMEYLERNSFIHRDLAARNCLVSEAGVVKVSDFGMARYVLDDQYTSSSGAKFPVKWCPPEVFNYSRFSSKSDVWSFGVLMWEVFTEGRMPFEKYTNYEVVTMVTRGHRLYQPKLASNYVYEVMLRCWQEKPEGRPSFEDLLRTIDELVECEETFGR

SMILES: CN1CC[C@H](c2c(O)cc(O)c3c(=O)cc(-c4ccccc4Cl)oc23)[C@H](O)C1
- IC50 [1]: > 10 µM
- IC50 [2]: > 10 µM
- IC50 [3]: > 10 µM
- IC50 [4]: > 10 µM
- IC50 [5]: > 10 µM
- IC50 [6]: > 10 µM
- IC50 [7]: > 10 µM
- IC50 [8]: > 10 µM
- IC50 [9]: > 10 µM
- IC50 [10]: > 10 µM
- IC50 [11]: 9.63 µM
- IC50 [12]: > 10 µM
- IC50 [13]: > 10 µM
- IC50 [14]: > 10 µM
- IC50 [15]: > 10 µM
- IC50 [16]: > 10 µM
- IC50 [17]: 9.47 µM
- IC50 [18]: > 10 µM
- IC50 [19]: > 10 µM
- IC50 [20]: > 10 µM
- IC50 [21]: > 10 µM
- IC50 [22]: 2.48 µM
- IC50 [23]: > 10 µM
- IC50 [24]: 8.74 µM
- IC50 [25]: > 10 µM
- IC50 [26]: > 10 µM
- IC50 [27]: > 10 µM
- IC50 [28]: > 10 µM
- IC50 [29]: > 10 µM
- IC50 [30]: > 10 µM
- IC50 [31]: > 10 µM
- IC50 [32]: > 10 µM
- IC50 [33]: > 10 µM
- IC50 [34]: 2.96 µM
- IC50 [35]: > 10 µM
- IC50 [36]: > 10 µM
- IC50 [37]: > 10 µM
- IC50 [38]: > 10 µM
- IC50 [39]: > 10 µM
- IC50 [40]: 7.68 µM
- IC50 [41]: > 10 µM
- IC50 [42]: > 10 µM
- IC50 [43]: > 10 µM
- IC50 [44]: > 10 µM
